As usually defined, the IC50 is the concentration that gives 50% inhibition. Read a high IC50 as lower potency. In general, bioavailability refers to the share of a dose that reaches the circulation, judged against a reference dose that is usually intravenous. Read a high bioavailability as good availability.

From patent US12227509B2, “Dihydropyrazolopyrazinone derivative having MGAT2 inhibitory activity” (Shionogi & Co., Ltd., priority 2019, dated 2025) come the findings set out here.

For series [1], the target named is CYP2D6 (Homo sapiens (Human), UniProt P10635). The series can be described thus: CYP inhibition test, CYP2D6. The series is classed as in vitro ADME. As to conditions: pooled human liver microsomes; dextromethorphan O-demethylation; given as 'five kinds'. From the text: (§1) Using commercially available pooled human hepatic microsome, and employing, as markers, 7-ethoxyresorufin O-deethylation (CYP1A2), tolbutamide methyl-hydroxylation (CYP2C9), mephenytoin 4'-hydroxylation (CYP2C19), dextromethorphan 0-demethylation (CYP2D6), and terfenadine hydroxylation (CYP3A4) as typical substrate metabolism reactions of human main five CYP enzyme forms (CYP1A2, 2C9, 2C19, 2D6, 3A4), an inhibitory degree of each metabolite production amount by the compound of the present invention was assessed. The reaction conditions are as follows: substrate, 0.5 μmol/L ethoxyresorufin (CYP1A2), 100 μmol/L tolbutamide (CYP2C9), 50 μmol/L S-mephenitoin (CYP2C19), 5 μmol/L dextromethorphan (CYP2D6), 1 μmol/L terfenedine (CYP3A4); reaction time, 15 minutes; reaction temperature, 37° C.; enzyme, pooled human liver microsomes 0.2 mg protein/mL; concentrations of the compound of the present invention, 1, 5, 10, 20 μmol/L (four points). As a reaction solution, each five kinds of substrates, human liver microsomes, or compound of the present invention in 50 mmol/L Hepes buffer were added to a 96-well plate at the composition as described above, and NADPH, as a cofactor was added to initiate metabolism reactions. After the incubation at 37° C. for 15 minutes, a methanol/acetonitrile=1/[…]) solution was added to stop the reaction. After the centrifugation at 3000 rpm for 15 minutes, resorufin (CYP1A2 metabolite) in the supernatant was quantified by a fluorescent multilabel counter or LC/MS/MS, and tolbutamide hydroxide (CYP2C9 metabolite), mephenytoin 4' hydroxide (CYP2C19 metabolite), dextrorphan (CYP2D6 metabolite), and terfenadine alcohol (CYP3A4 metabolite) were quantified by LC/MS/MS. Addition of only DMSO being a solvent dissolving a drug to a reaction system was adopted as a control (100%). Remaining activity (%) was calculated. IC50 was calculated by reverse presumption by a logistic model using the concentration and an inhibition rate.
CYP2D6, sequence (P10635 whole entry): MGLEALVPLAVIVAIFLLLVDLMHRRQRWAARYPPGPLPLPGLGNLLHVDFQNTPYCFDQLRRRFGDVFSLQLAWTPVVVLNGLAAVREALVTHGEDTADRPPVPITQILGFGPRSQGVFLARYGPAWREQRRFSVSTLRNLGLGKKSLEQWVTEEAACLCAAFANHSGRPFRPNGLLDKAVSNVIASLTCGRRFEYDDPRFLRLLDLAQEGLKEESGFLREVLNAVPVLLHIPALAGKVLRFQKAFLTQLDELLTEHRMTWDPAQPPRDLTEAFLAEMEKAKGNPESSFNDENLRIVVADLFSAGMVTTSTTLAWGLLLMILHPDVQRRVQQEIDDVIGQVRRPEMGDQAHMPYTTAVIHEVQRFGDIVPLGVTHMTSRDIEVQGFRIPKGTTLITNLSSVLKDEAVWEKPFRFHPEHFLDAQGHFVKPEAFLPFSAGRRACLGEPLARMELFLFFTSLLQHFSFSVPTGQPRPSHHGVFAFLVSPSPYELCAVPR

Series [2] concerns the target CYP2C9 (Homo sapiens (Human), UniProt P11712). The series can be described thus: CYP inhibition test, CYP2C9. The series is classed as in vitro ADME. The conditions noted are these: pooled human liver microsomes; tolbutamide methyl-hydroxylation; given as 'five kinds'.
Description: as §1
A general note: Liver microsomes are vesicles of endoplasmic reticulum, rich in cytochrome P450 enzymes.

Series [3] deals with CYP2C19 (Homo sapiens (Human), UniProt P33261). The series can be described thus: CYP inhibition test, CYP2C19. The conditions noted are these: pooled human liver microsomes; mephenytoin 4′-hydroxylation; given as 'five kinds'. The series is classed as in vitro ADME.
CYP2C19, sequence (P33261 whole entry): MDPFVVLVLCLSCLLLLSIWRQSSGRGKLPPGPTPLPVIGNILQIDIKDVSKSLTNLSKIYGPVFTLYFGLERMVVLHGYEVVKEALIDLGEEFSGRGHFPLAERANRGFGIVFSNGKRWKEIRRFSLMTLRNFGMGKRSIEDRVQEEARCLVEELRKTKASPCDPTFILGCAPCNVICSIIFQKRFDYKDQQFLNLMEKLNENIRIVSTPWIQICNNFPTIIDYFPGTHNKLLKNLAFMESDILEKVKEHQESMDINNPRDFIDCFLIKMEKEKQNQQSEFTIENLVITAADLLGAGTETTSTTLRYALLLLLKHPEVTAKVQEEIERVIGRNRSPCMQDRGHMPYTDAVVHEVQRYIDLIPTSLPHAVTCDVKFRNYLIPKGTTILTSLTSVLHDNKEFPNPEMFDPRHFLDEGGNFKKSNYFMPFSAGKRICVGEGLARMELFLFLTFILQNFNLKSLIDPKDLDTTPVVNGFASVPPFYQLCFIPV
Description: as §1

The nature of series [4]: Metabolism stability test (human liver microsomes). The series is classed as in vitro ADME. As to conditions: compound concentration 0.5 μmol/L, 37° C., 30 minutes, NADPH.
Series [5] addresses CYP3A4 (Homo sapiens (Human), UniProt P08684). The series can be described thus: CYP inhibition test, CYP3A4. The series is classed as in vitro ADME. As to conditions: pooled human liver microsomes; terfenadine hydroxylation; given as 'five kinds'.
Description: as §1

Series [6] is described as follows: BA test (oral absorption). The series is classed as in vivo. The conditions noted are these: plasma; mice or SD rats; from AUCs of oral and intravenous administration. The procedure: Materials and methods for experiments to evaluate oral absorption
(1) Animals: the mice or SD rats were used.
(2) Breeding conditions: the mice or SD rats were allowed to freely take solid food and sterilized tap water.
(3) Setting of dosage and grouping: Oral administration and intravenous administration were performed with a predetermined dosage. Grouping was set as below. (dosage changed per compound)
Oral administration: 1 to 30 mg/kg (n=2 to 3)
Intravenous administration: 0.5 to 10 mg/kg (n=2 to 3)
(4) Preparation of administration solution: Oral administration was performed in the form of a suspension or a solution. Intravenous administration was performed after solubilization.
(5) Routes of administration: Oral administration was performed mandatory into the stomach by oral sonde. Intravenous administration was performed from caudal vein or femoral vein by syringes with needle.
(6) Evaluation items: blood was collected over time, and the plasma concentration of the compound of the present invention was measured by LC/MS/MS.
(7) Statistical analysis: regarding the transition of the plasma concentration of the compound of the present invention, the area under the plasma concentration-time curve (AUC) was calculated by non-linear least squares program WinNonlin (registered trademark), and the bioavailability (BA) of the compound of the present invention was calculated from the AUCs of the oral administration group and intravenous administration group.

CYP3A4, sequence (P08684 whole entry): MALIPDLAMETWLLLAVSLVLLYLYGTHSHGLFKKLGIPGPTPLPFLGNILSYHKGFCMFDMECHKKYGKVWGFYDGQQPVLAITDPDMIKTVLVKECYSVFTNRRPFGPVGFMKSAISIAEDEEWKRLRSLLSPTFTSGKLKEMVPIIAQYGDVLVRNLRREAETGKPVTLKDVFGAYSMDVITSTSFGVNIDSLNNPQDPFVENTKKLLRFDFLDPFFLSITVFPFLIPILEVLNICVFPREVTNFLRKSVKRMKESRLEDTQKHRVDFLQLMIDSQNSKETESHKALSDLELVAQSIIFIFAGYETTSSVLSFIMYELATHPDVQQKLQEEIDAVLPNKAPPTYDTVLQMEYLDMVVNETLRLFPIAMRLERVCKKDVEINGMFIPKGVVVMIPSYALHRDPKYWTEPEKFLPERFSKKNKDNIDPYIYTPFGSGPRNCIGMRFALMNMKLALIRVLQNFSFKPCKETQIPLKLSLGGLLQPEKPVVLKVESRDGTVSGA
CYP2C9, sequence (P11712 whole entry): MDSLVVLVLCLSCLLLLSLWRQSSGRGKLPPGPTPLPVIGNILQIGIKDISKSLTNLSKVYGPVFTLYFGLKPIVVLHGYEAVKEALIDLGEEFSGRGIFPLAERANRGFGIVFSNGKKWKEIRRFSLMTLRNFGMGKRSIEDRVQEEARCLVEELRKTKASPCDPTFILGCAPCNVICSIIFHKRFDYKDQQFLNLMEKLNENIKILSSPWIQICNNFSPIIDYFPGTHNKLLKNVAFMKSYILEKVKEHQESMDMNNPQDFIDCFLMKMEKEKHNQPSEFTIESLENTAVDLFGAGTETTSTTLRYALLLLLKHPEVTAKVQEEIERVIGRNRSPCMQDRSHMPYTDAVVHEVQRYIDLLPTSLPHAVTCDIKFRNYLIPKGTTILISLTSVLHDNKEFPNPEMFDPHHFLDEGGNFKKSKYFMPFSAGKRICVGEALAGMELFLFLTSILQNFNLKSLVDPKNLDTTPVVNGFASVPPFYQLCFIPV

Regarding `CS(=O)(=O)CC(=O)Nc1c(CCC2CC2)nn2c1C(=O)N[C@@]1(CCc3cc(OCC(F)(F)F)ccc31)C2` [Compound I-46], the IC50 in series [1], in series [2], in series [3] and in series [5] was more than 20 µM each time. Moreover, the Remaining rate in series [4] turned out to be 78.1%. The bioavailability in series [6] was found to be 53.1%.
Take `N#Cc1ccc(-c2nn3c(c2NC(=O)CC(F)(F)F)C(=O)N[C@@]2(CCc4cc(OCC(F)(F)F)ccc42)C3)nc1` [Compound I-14]: the IC50 in series [1], in series [2], in series [3] and in series [5] was more than 20 µM in each case. Moreover, in series [4], the Remaining rate is given as 103%.
As to `Cc1ccc(-c2nn3c(c2NC(=O)CS(C)(=O)=O)C(=O)N[C@@]2(CCc4cc(OCC(F)(F)F)ccc42)C3)nc1` [Compound I-6], the concentration for half-maximal inhibition (IC50) in series [1], in series [2], in series [3] and in series [5] was more than 20 µM in each case. In series [4], this molecule had a Remaining rate of 92.4%. The same molecule displayed a bioavailability in series [6] of 55.1%.
For the molecule `CS(=O)(=O)CC(=O)Nc1c(CCC(F)(F)F)nn2c1C(=O)N[C@@]1(CCc3cc(OCC(F)(F)F)ccc31)C2` [Compound I-58], the IC50 in series [1], in series [2], in series [3] and in series [5] was more than 20 µM in each case. Further, the Remaining rate in series [4] was found to be 88.4%. Besides, the bioavailability in series [6] worked out at 88.2%.
On to `Cc1ccc(-c2nn3c(c2NC(=O)CS(C)(=O)=O)C(=O)N[C@@]2(CCc4cc(OCC(F)(F)F)ccc42)C3)cc1` [Compound I-20], for which the IC50 in series [1], in series [2], in series [3] and in series [5] was more than 20 µM in each case. In series [4], the Remaining rate was determined as 74.5%. In series [6], this molecule gave a bioavailability of 63.4%.
